According to PubChem BioAssay AID248 (DTP/NCI, 2004):
Where “and” joins values, the source holds several entries; their conditions need not be identical. Equal entries are not always repeated. Inconclusive results and toxic doses are left out. Rule as the data show it: active = T/C of 150% or more; inactive = T/C below 125%.

Test system: L1210 leukemia ip in BDF1 mice, survival T/C
Assay: NCI In Vivo Anticancer Drug Screen. Data for tumor model L1210 Leukemia (intraperitoneal) in B6D2F1 (BDF1) mice
Conditions: endpoint: mean survival time, higher = longer survival
Outline: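 Read-out is survival time, reported as the treated-group measurement over the vehicle-control measurement.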

[1] = dose: 50.0 mg/kg/injection, schedule: Q01DX001 (ip), vehicle: saline
[2] = dose: 50.0 mg/kg/injection, schedule: Q04DX003 (ip), vehicle: saline
[3] = dose: 100.0 mg/kg/injection, schedule: Q01DX001 (ip), vehicle: saline
[4] = dose: 100.0 mg/kg/injection, schedule: Q04DX003 (ip), vehicle: saline
[5] = dose: 200.0 mg/kg/injection, schedule: Q01DX001 (ip), vehicle: saline
[6] = dose: 200.0 mg/kg/injection, schedule: Q04DX003 (ip), vehicle: saline
[7] = dose: 400.0 mg/kg/injection, schedule: Q01DX001 (ip), vehicle: saline
[8] = dose: 400.0 mg/kg/injection, schedule: Q04DX003 (ip), vehicle: saline

Measured: T/C

O=C1C(=O)c2ccccc2C(O)=C1CC=C(Cl)Cl
inactive: dose: 6.2 mg/kg/injection, schedule: Q01DX009 (ip), vehicle: water 94 % of control | dose: 6.25 mg/kg/injection, schedule: Q01DX001 (ip), vehicle: saline 97 % of control | dose: 12.5 mg/kg/injection, schedule: Q01DX001 (ip), vehicle: saline 106 % of control | dose: 12.5 mg/kg/injection, schedule: Q01DX001 (oral), vehicle: saline 97 % of control | dose: 12.5 mg/kg/injection, schedule: Q01DX009 (ip), vehicle: water 100 % of control and 96 % of control | dose: 12.5 mg/kg/injection, schedule: Q03HX024 (ip), vehicle: water 89 % of control | dose: 12.5 mg/kg/injection, schedule: Q04DX003 (ip), vehicle: water 94 % of control | dose: 12.5 mg/kg/injection, schedule: Q08DX002 (ip), vehicle: water 98 % of control | dose: 25.0 mg/kg/injection, schedule: Q01DX001 (ip), vehicle: saline 104 % of control | dose: 25.0 mg/kg/injection, schedule: Q01DX001 (oral), vehicle: saline 104 % of control | dose: 25.0 mg/kg/injection, schedule: Q01DX009 (ip), vehicle: water 102 % of control and 96 % of control | dose: 25.0 mg/kg/injection, schedule: Q03HX016 (ip), vehicle: water 89 % of control | dose: 25.0 mg/kg/injection, schedule: Q03HX024 (ip), vehicle: water 90 % of control | dose: 25.0 mg/kg/injection, schedule: Q04DX003 (ip), vehicle: water 95 % of control | dose: 25.0 mg/kg/injection, schedule: Q08DX002 (ip), vehicle: water 95 % of control | dose: 25.0 mg/kg/injection, schedule: Q## X008 (ip), vehicle: water 91 % of control | [1] 106 % of control | dose: 50.0 mg/kg/injection, schedule: Q01DX001 (ip), vehicle: water 102 % of control | dose: 50.0 mg/kg/injection, schedule: Q01DX001 (oral), vehicle: saline 98 % of control | dose: 50.0 mg/kg/injection, schedule: Q01DX009 (ip), vehicle: water 113 % of control and 100 % of control | dose: 50.0 mg/kg/injection, schedule: Q03HX016 (ip), vehicle: water 91 % of control | dose: 50.0 mg/kg/injection, schedule: Q03HX024 (ip), vehicle: water 96 % of control | dose: 50.0 mg/kg/injection, schedule: Q04DX003 (ip), vehicle: water 97 % of control | dose: 50.0 mg/kg/injection, schedule: Q08DX002 (ip), vehicle: water 92 % of control | dose: 50.0 mg/kg/injection, schedule: Q## X008 (ip), vehicle: water 88 % of control | dose: 75.0 mg/kg/injection, schedule: Q03HX024 (ip), vehicle: water 90 % of control | dose: 75.0 mg/kg/injection, schedule: Q04DX003 (ip), vehicle: water 95 % of control | dose: 100.0 mg/kg/injection, schedule: Q01DX001 (oral), vehicle: saline 97 % of control and 106 % of control | dose: 100.0 mg/kg/injection, schedule: Q03HX016 (ip), vehicle: water 88 % of control | dose: 100.0 mg/kg/injection, schedule: Q03HX024 (ip), vehicle: water 92 % of control | dose: 100.0 mg/kg/injection, schedule: Q08DX002 (ip), vehicle: water 92 % of control | dose: 100.0 mg/kg/injection, schedule: Q## X008 (ip), vehicle: water 92 % of control | dose: 200.0 mg/kg/injection, schedule: Q03HX016 (ip), vehicle: water 90 % of control | dose: 200.0 mg/kg/injection, schedule: Q## X008 (ip), vehicle: water 94 % of control

CC1=CC(=O)C2(C)C(C)=C(C)C12C (stereo not given)
inactive: dose: 50.0 mg/kg/injection, schedule: Q04DX003 (ip), vehicle: saline with Tween-80 99 % of control | dose: 75.0 mg/kg/injection, schedule: Q01DX001 (ip), vehicle: saline 105 % of control | dose: 100.0 mg/kg/injection, schedule: Q04DX003 (ip), vehicle: saline with Tween-80 94 % of control | dose: 150.0 mg/kg/injection, schedule: Q01DX001 (ip), vehicle: saline 111 % of control | dose: 300.0 mg/kg/injection, schedule: Q01DX001 (ip), vehicle: saline 97 % of control

CC(C)NCC(O)c1cccc(O)c1 (stereo not given)
inactive: [2] 101 % of control | [3] 98 % of control | [4] 101 % of control | [5] 97 % of control | [6] 104 % of control

c1cc[c]([Sb]([c]2ccccc2)[n]2ccnc2)cc1
inactive: dose: 5.0 mg/kg/injection, schedule: Q04DX002 (ip), vehicle: saline with Tween-80 97 % of control | dose: 10.0 mg/kg/injection, schedule: Q04DX002 (ip), vehicle: saline with Tween-80 97 % of control

CNS(=O)(=O)c1ccccc1C(C)(O)c1ccccc1 (stereo not given)
inactive: [3] 97 % of control | [5] 103 % of control | [7] 97 % of control

C/C(=N\O)c1c[nH]c(=O)[nH]c1=O
inactive: dose: 100.0 mg/kg/injection, schedule: Q04DX002 (ip), vehicle: Klucel (hydroxypropylcellulose) (HPC) 94 % of control | dose: 200.0 mg/kg/injection, schedule: Q04DX002 (ip), vehicle: Klucel (hydroxypropylcellulose) (HPC) 103 % of control

CCN(CC)CC(O)c1ccnc2c([N+](=O)[O-])cc(OC)cc12 (stereo not given)
inactive: dose: 75.0 mg/kg/injection, schedule: Q01DX001 (ip), vehicle: acetone 106 % of control | dose: 150.0 mg/kg/injection, schedule: Q01DX001 (ip), vehicle: acetone 102 % of control | dose: 300.0 mg/kg/injection, schedule: Q01DX001 (ip), vehicle: acetone 91 % of control

CC(=O)OC1C(C[N+](=O)[O-])OC(n2cnc3c(NC(=O)c4ccccc4)ncnc32)C(OC(C)=O)C1OC(C)=O (stereo not given)
inactive: dose: 50.0 mg/kg/injection, schedule: Q04DX002 (ip), vehicle: saline 102 % of control | dose: 100.0 mg/kg/injection, schedule: Q04DX002 (ip), vehicle: saline 100 % of control | dose: 200.0 mg/kg/injection, schedule: Q04DX002 (ip), vehicle: saline 121 % of control

O=[N+]([O-])C1C=CCS1(=O)=O (stereo not given)
inactive: [4] 95 % of control | [6] 96 % of control | [8] 86 % of control

C1CCC2C(C1)CCC1C2OCN2CCCCC12 (stereo not given)
inactive: dose: 100.0 mg/kg/injection, schedule: Q04DX002 (ip), vehicle: saline with Tween-80 104 % of control | [4] 98 % of control | dose: 200.0 mg/kg/injection, schedule: Q04DX002 (ip), vehicle: saline with Tween-80 101 % of control | [6] 98 % of control | dose: 400.0 mg/kg/injection, schedule: Q04DX002 (ip), vehicle: saline with Tween-80 96 % of control | [8] 98 % of control

CCS(=O)(=O)/C=C/c1ccc(Cl)c(Cl)c1
inactive: dose: 100.0 mg/kg/injection, schedule: Q04DX003 (ip), vehicle: Klucel (hydroxypropylcellulose) (HPC) 110 % of control | dose: 200.0 mg/kg/injection, schedule: Q04DX003 (ip), vehicle: Klucel (hydroxypropylcellulose) (HPC) 97 % of control | dose: 400.0 mg/kg/injection, schedule: Q04DX003 (ip), vehicle: Klucel (hydroxypropylcellulose) (HPC) 107 % of control

CCCCNc1cc2c3c(c1)CCCN3CCC2
inactive: dose: 12.5 mg/kg/injection, schedule: Q01DX009 (ip), vehicle: saline 107 % of control | dose: 12.5 mg/kg/injection, schedule: Q04DX003 (ip), vehicle: saline 95 % of control | dose: 25.0 mg/kg/injection, schedule: Q01DX009 (ip), vehicle: saline 103 % of control | dose: 25.0 mg/kg/injection, schedule: Q04DX003 (ip), vehicle: saline 98 % of control | [2] 95 % of control

Cc1ccc(S(=O)(=O)C2CCCCC2Cl)cc1 (stereo not given)
inactive: dose: 100.0 mg/kg/injection, schedule: Q01DX001 (ip), vehicle: carboxymethylcellulose (CMC) 109 % of control | dose: 200.0 mg/kg/injection, schedule: Q01DX001 (ip), vehicle: carboxymethylcellulose (CMC) 102 % of control | dose: 400.0 mg/kg/injection, schedule: Q01DX001 (ip), vehicle: carboxymethylcellulose (CMC) 98 % of control

NC(=O)NC(=O)/C=C\C(=O)O
inactive: dose: 50.0 mg/kg/injection, schedule: Q01DX009 (ip), vehicle: Klucel (hydroxypropylcellulose) (HPC) 93 % of control | dose: 100.0 mg/kg/injection, schedule: Q01DX009 (ip), vehicle: Klucel (hydroxypropylcellulose) (HPC) 98 % of control | dose: 200.0 mg/kg/injection, schedule: Q01DX009 (ip), vehicle: Klucel (hydroxypropylcellulose) (HPC) 91 % of control

O=c1[nH]c(=O)n(C2OC(CO)C(O)C2O)cc1CCC(F)F (stereo not given)
inactive: dose: 100.0 mg/kg/injection, schedule: Q04DX002 (ip), vehicle: other 105 % of control | dose: 200.0 mg/kg/injection, schedule: Q04DX002 (ip), vehicle: other 102 % of control

NC(=O)n1cnc(N)n1
inactive: [1] 98 % of control | [3] 98 % of control | [5] 104 % of control | [7] 107 % of control

CCOC(=O)CN(C)C(=O)OCC
inactive: [1] 104 % of control | [3] 101 % of control | [5] 117 % of control | [7] 101 % of control
